Where “and” joins values, the source holds several entries; their conditions need not be identical. Equal entries are not always repeated. Toxic doses and inconclusive results are not listed.
Test system: P388 leukemia ip, CD2F1 mice, survival T/C
Assay: NCI In Vivo Anticancer Drug Screen. Data for tumor model P388 Leukemia (intraperitoneal) in CD2F1 (CDF1) mice
Details: endpoint: median survival time, higher = longer survival
In short: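 Mice carrying the transplanted tumor received test compound or vehicle. Survival was recorded in each group, and the value is the treated-group measurement divided by that of the vehicle-treated control group.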

[1] = dose: 12.5 mg/kg/injection, schedule: Q01DX005 (ip), vehicle: Klucel (hydroxypropylcellulose) (HPC)
[2] = dose: 25.0 mg/kg/injection, schedule: Q01DX005 (ip), vehicle: Klucel (hydroxypropylcellulose) (HPC)
[3] = dose: 50.0 mg/kg/injection, schedule: Q01DX005 (ip), vehicle: Klucel (hydroxypropylcellulose) (HPC)
[4] = dose: 100.0 mg/kg/injection, schedule: Q01DX005 (ip), vehicle: Klucel (hydroxypropylcellulose) (HPC)
[5] = dose: 12.5 mg/kg/injection, schedule: Q01DX009 (ip), vehicle: saline
[6] = dose: 25.0 mg/kg/injection, schedule: Q01DX009 (ip), vehicle: saline
[7] = dose: 50.0 mg/kg/injection, schedule: Q01DX009 (ip), vehicle: saline
[8] = dose: 100.0 mg/kg/injection, schedule: Q01DX009 (ip), vehicle: saline
[9] = dose: 200.0 mg/kg/injection, schedule: Q01DX009 (ip), vehicle: saline
[10] = dose: 50.0 mg/kg/injection, schedule: Q01DX005 (ip), vehicle: saline with Tween-80
[11] = dose: 100.0 mg/kg/injection, schedule: Q01DX005 (ip), vehicle: saline with Tween-80
[12] = dose: 50.0 mg/kg/injection, schedule: Q01DX009 (ip), vehicle: saline with Tween-80
[13] = dose: 100.0 mg/kg/injection, schedule: Q01DX009 (ip), vehicle: saline with Tween-80
[14] = dose: 200.0 mg/kg/injection, schedule: Q01DX005 (ip), vehicle: saline with Tween-80

C[c-]1[c-][c-][c-][c-]1.[C-]#[O+].[C-]#[O+].[C-]#[O+].[Mn]
T/C [1]: 94 % of control | T/C [2]: 95 % of control | T/C [3]: 99 % of control | T/C [4]: 99 % of control

O=C(O)C(O)C(O)C(=O)O.[Bi].[Na+] (stereo unspecified)
T/C [5]: 113 % of control | T/C [6]: 115 % of control | T/C [7]: 87 % of control and 98 % of control | T/C [8]: 93 % of control

CCc1c(-c2ccc(Cl)cc2)nc(N)nc1-c1nc(N)nc(-c2ccc(Cl)cc2)c1CC
T/C (dose: 60.0 mg/kg/injection, schedule: Q01DX005 (ip), vehicle: saline): 100 % of control | T/C (dose: 120.0 mg/kg/injection, schedule: Q01DX005 (ip), vehicle: saline): 100 % of control

C[n+]1ccccc1C(=O)O
T/C [6]: 102 % of control | T/C [7]: 98 % of control | T/C [8]: 103 % of control | T/C [9]: 92 % of control

Cn1c([N+](=O)[O-])cnc1/C=[N+](\[O-])C1CCCCC1
T/C [7]: 100 % of control | T/C [8]: 100 % of control | T/C [9]: 102 % of control

CC(/C=N/NC(=O)C[n+]1ccccc1)=N/NC(=O)C[n+]1ccccc1
T/C (dose: 3.12 mg/kg/injection, schedule: Q01DX005 (ip), vehicle: saline): 96 % of control and 98 % of control | T/C (dose: 6.25 mg/kg/injection, schedule: Q01DX005 (ip), vehicle: saline): 97 % of control and 98 % of control | T/C (dose: 12.5 mg/kg/injection, schedule: Q01DX005 (ip), vehicle: saline): 99 % of control and 97 % of control | T/C (dose: 25.0 mg/kg/injection, schedule: Q01DX005 (ip), vehicle: saline): 99 % of control and 101 % of control | T/C [10]: 95 % of control

COc1ccc2cc3[n+](cc2c1O)CCc1cc2c(cc1-3)OCO2
T/C (dose: 6.25 mg/kg/injection, schedule: Q01DX005 (ip), vehicle: Klucel (hydroxypropylcellulose) (HPC)): 99 % of control and 106 % of control | T/C [1]: 107 % of control and 96 % of control | T/C [2]: 101 % of control and 117 % of control | T/C [3]: 111 % of control | T/C (dose: 200.0 mg/kg/injection, schedule: Q01DX005 (ip), vehicle: Klucel (hydroxypropylcellulose) (HPC)): 179 % of control

O=C(Nc1cccc2ccccc12)ON1C(=O)c2ccccc2C1=O
T/C (dose: 25.0 mg/kg/injection, schedule: Q01DX005 (ip), vehicle: saline with Tween-80): 92 % of control | T/C [10]: 99 % of control and 113 % of control and 96 % of control | T/C [11]: 110 % of control and 119 % of control

S=c1[nH]c2ccccc2[nH]1
T/C (dose: 6.25 mg/kg/injection, schedule: Q01DX009 (ip), vehicle: saline): 98 % of control | T/C [5]: 102 % of control | T/C [7]: 98 % of control

C/C(=C\Cl)CO
T/C (dose: 25.0 mg/kg/injection, schedule: Q01DX009 (ip), vehicle: saline with Tween-80): 111 % of control | T/C [12]: 111 % of control | T/C [13]: 94 % of control

O=C1c2ccccc2C(=O)c2c(O)c(NCCNCCO)cc(O)c21
T/C (dose: 1.25 mg/kg/injection, schedule: Q01DX009 (ip), vehicle: acid diluted with saline): 113 % of control | T/C (dose: 2.5 mg/kg/injection, schedule: Q01DX009 (ip), vehicle: acid diluted with saline): 98 % of control and 104 % of control | T/C (dose: 5.0 mg/kg/injection, schedule: Q01DX009 (ip), vehicle: acid diluted with saline): 117 % of control and 122 % of control | T/C (dose: 10.0 mg/kg/injection, schedule: Q01DX009 (ip), vehicle: acid diluted with saline): 108 % of control and 124 % of control | T/C (dose: 20.0 mg/kg/injection, schedule: Q01DX009 (ip), vehicle: acid diluted with saline): 104 % of control and 118 % of control | T/C (dose: 40.0 mg/kg/injection, schedule: Q01DX009 (ip), vehicle: acid diluted with saline): 108 % of control | T/C (dose: 80.0 mg/kg/injection, schedule: Q01DX009 (ip), vehicle: acid diluted with saline): 89 % of control

O=C(c1cccc2c1Oc1ccccc1S2)c1cccc2c1Oc1ccccc1S2
T/C [10]: 113 % of control | T/C [11]: 103 % of control | T/C [14]: 103 % of control

FC(F)(F)C1(C(F)(F)F)OS2(F)(F)(OC(C(F)(F)F)(C(F)(F)F)c3ccccc32)c2ccccc21
T/C [2]: 92 % of control | T/C [3]: 95 % of control | T/C [4]: 94 % of control

COc1ccc(NS(=O)(=O)c2ccc(F)cc2)cc1
T/C (dose: 60.0 mg/kg/injection, schedule: Q01DX005 (ip), vehicle: saline with Tween-80): 99 % of control | T/C (dose: 120.0 mg/kg/injection, schedule: Q01DX005 (ip), vehicle: saline with Tween-80): 106 % of control | T/C (dose: 240.0 mg/kg/injection, schedule: Q01DX005 (ip), vehicle: saline with Tween-80): 106 % of control

C=C(C)C1CCC2=CC(CC3(C)OC3C3=CC(C(=O)OC)=C(C1)O3)OC2=O (stereo unspecified)
T/C (dose: 12.5 mg/kg/injection, schedule: Q01DX009 (ip), vehicle: Klucel (hydroxypropylcellulose) (HPC)): 99 % of control | T/C (dose: 25.0 mg/kg/injection, schedule: Q01DX009 (ip), vehicle: Klucel (hydroxypropylcellulose) (HPC)): 104 % of control | T/C (dose: 50.0 mg/kg/injection, schedule: Q01DX009 (ip), vehicle: Klucel (hydroxypropylcellulose) (HPC)): 100 % of control

CCOC(=O)Cc1cc2cc(OCC)ncc2cc1C
T/C (dose: 6.25 mg/kg/injection, schedule: Q01DX009 (ip), vehicle: distilled water + Tween-80): 91 % of control | T/C (dose: 12.5 mg/kg/injection, schedule: Q01DX009 (ip), vehicle: distilled water + Tween-80): 89 % of control | T/C (dose: 25.0 mg/kg/injection, schedule: Q01DX009 (ip), vehicle: distilled water + Tween-80): 103 % of control | T/C (dose: 50.0 mg/kg/injection, schedule: Q01DX009 (ip), vehicle: distilled water + Tween-80): 99 % of control | T/C (dose: 100.0 mg/kg/injection, schedule: Q01DX009 (ip), vehicle: distilled water + Tween-80): 94 % of control | T/C (dose: 200.0 mg/kg/injection, schedule: Q01DX009 (ip), vehicle: distilled water + Tween-80): 109 % of control | T/C (dose: 400.0 mg/kg/injection, schedule: Q01DX009 (ip), vehicle: distilled water + Tween-80): 102 % of control

CC(C)COC(=O)NCCCl
T/C [12]: 100 % of control | T/C [13]: 97 % of control | T/C (dose: 200.0 mg/kg/injection, schedule: Q01DX009 (ip), vehicle: saline with Tween-80): 97 % of control

CCC(=O)/C(=C\c1ccccc1Cl)C(C)=O
T/C (dose: 100.0 mg/kg/injection, schedule: Q04DX003 (ip), vehicle: saline with Tween-80): 105 % of control | T/C (dose: 200.0 mg/kg/injection, schedule: Q04DX003 (ip), vehicle: saline with Tween-80): 110 % of control | T/C (dose: 400.0 mg/kg/injection, schedule: Q04DX003 (ip), vehicle: saline with Tween-80): 95 % of control

O=C1CC[C@@H]2CCCC[C@@H]2C1
T/C (dose: 12.5 mg/kg/injection, schedule: Q01DX009 (ip), vehicle: saline sonified): 104 % of control | T/C (dose: 25.0 mg/kg/injection, schedule: Q01DX009 (ip), vehicle: saline sonified): 118 % of control | T/C (dose: 50.0 mg/kg/injection, schedule: Q01DX009 (ip), vehicle: saline sonified): 100 % of control

COC(C)C(O)(C(=O)OCC1=CC[N+]2([O-])CCC(O)C12)C(C)(C)O (stereo unspecified)
T/C (dose: 100.0 mg/kg/injection, schedule: Q01DX005 (ip), vehicle: other): 111 % of control | T/C [11]: 104 % of control | T/C (dose: 200.0 mg/kg/injection, schedule: Q01DX005 (ip), vehicle: other): 102 % of control | T/C [14]: 112 % of control | T/C (dose: 400.0 mg/kg/injection, schedule: Q01DX005 (ip), vehicle: saline with Tween-80): 107 % of control | T/C (dose: 800.0 mg/kg/injection, schedule: Q01DX005 (ip), vehicle: other): 111 % of control | T/C (dose: 800.0 mg/kg/injection, schedule: Q01DX005 (ip), vehicle: saline with Tween-80): 117 % of control | T/C (dose: 1600.0 mg/kg/injection, schedule: Q01DX005 (ip), vehicle: saline with Tween-80): 112 % of control

CC(CN1c2ccccc2Sc2ccccc21)N(C)C (stereo unspecified)
T/C (dose: 25.0 mg/kg/injection, schedule: Q01DX001 (ip), vehicle: saline): 99 % of control | T/C (dose: 50.0 mg/kg/injection, schedule: Q01DX001 (ip), vehicle: saline): 101 % of control | T/C (dose: 100.0 mg/kg/injection, schedule: Q01DX001 (ip), vehicle: saline): 95 % of control

S=C(N/N=C/c1ccc(Cl)s1)NC12CC3CC(CC(C3)C1)C2
T/C (dose: 30.0 mg/kg/injection, schedule: Q01DX005 (ip), vehicle: Klucel (hydroxypropylcellulose) (HPC)): 87 % of control | T/C (dose: 60.0 mg/kg/injection, schedule: Q01DX005 (ip), vehicle: Klucel (hydroxypropylcellulose) (HPC)): 93 % of control | T/C (dose: 120.0 mg/kg/injection, schedule: Q01DX005 (ip), vehicle: Klucel (hydroxypropylcellulose) (HPC)): 102 % of control | T/C (dose: 240.0 mg/kg/injection, schedule: Q01DX005 (ip), vehicle: Klucel (hydroxypropylcellulose) (HPC)): 100 % of control

— PubChem BioAssay AID330 (DTP/NCI, 2004)
